Assay results: PubChem BioAssay (NCI)
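In this assay, cells in 96-well plates receive the compound at five concentrations for 48 hours. Endpoints are linearly interpolated between the surrounding concentrations. At the TGI there is no net growth.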

Legend:
Experiment in all cases: inhibition of tumour cell growth, NCI panel, 48 h
PC-3 prostate = test system: PC-3 prostate
SW-620 colon = test system: SW-620 colon
786-0 renal = test system: 786-0 renal
MALME-3M melanoma = test system: MALME-3M melanoma
KM12 colon = test system: KM12 colon
HS 578T breast = test system: HS 578T breast
LOX IMVI melanoma = test system: LOX IMVI melanoma
OVCAR-5 ovarian = test system: OVCAR-5 ovarian
MDA-N = test system: MDA-N
NCI-H522 lung = test system: NCI-H522 lung
MCF7 breast = test system: MCF7 breast

| Structure (SMILES) | TGI (PC-3 prostate) [µM] | TGI (SW-620 colon) [µM] | TGI (786-0 renal) [µM] | TGI (MALME-3M melanoma) [µM] | TGI (KM12 colon) [µM] | TGI (HS 578T breast) [µM] | TGI (LOX IMVI melanoma) [µM] | TGI (OVCAR-5 ovarian) [µM] | TGI (MDA-N) [µM] | TGI (NCI-H522 lung) [µM] | TGI (MCF7 breast) [µM] |
| --- | --- | --- | --- | --- | --- | --- | --- | --- | --- | --- | --- |
| O=C1CSC(c2cccs2)N1c1nc2cc3sc(N4C(=O)CSC4c4cccs4)nc3cc2s1 (stereo not drawn) | > 50 | > 50 | > 50 | > 50 | > 50 | > 50 | > 50 | > 50 | > 50 | > 50 | > 50 |
| COc1cc(I)c2c3c1OC1C34CCN(C)C(C2)C4=CC(I)C1(OC)OC (stereo not drawn) | 82.1 | 52.2 | 43.7 | 47.1 | 40 | > 100 | 42.3 | 81.6 | 48 | 44.2 | 64.3 |
| C=c1c(OC)c(OC)c(O)c2c1=c1cc([N+](=O)[O-])cc(OC)c1=N2 | > 100 | > 100 | > 100 | > 100 | > 100 | > 100 | > 100 | > 100 | > 100 | > 100 | > 100 |
| O=c1c(-c2ccc(Cl)cc2)nnc2n(Cc3ccccc3)c3ccccc3n12 | > 100 | > 100 | 42.8 | > 100 | > 100 | > 100 | > 100 | > 100 | > 100 | > 100 | > 100 |
| CC1S/C(=N/c2nnc(-c3ccccc3)o2)NC1=O (stereo not drawn) | > 100 | > 100 | 85.4 | > 100 | > 100 | > 100 | > 100 | > 100 | > 100 | > 100 | > 100 |
| C=C1C(=O)O[C@@]23C1CC[C@@H](C)C2CC[C@@]1(C)OC31 (stereo partly drawn) | 18.7 | 37.5 | 26.6 | 7.59 | 45.7 | 46.5 | 26.6 | 26.7 | 23.1 | 20.2 | 24.9 |
| O=C1C=C(c2ccccc2)O/C1=C/C(=O)c1ccc(Cl)cc1 | 27.3 | 27.1 | 29.9 | 36 | 36.7 | 55.5 | 26.1 | 43.3 | 30.2 | 27.7 | 30.1 |
| COc1ccc2c(c1)CN1C(=N2)CSC1c1ccccc1Cl (stereo not drawn) | 70.5 | 41.7 | 34.5 | 47.9 | 34.8 | 82.5 | 28.9 | 46.8 | 36.1 | 39.2 | > 100 |
| COc1c(C)c2nc3ccccc3[nH]c2c2c(=O)ccnc12 | > 100 | > 100 | > 100 | > 100 | > 100 | 78.7 | > 100 | > 100 | > 100 | > 100 | > 100 |
| O=[N+]([O-])c1ccc(NC(=S)N=Nc2c(O)[nH]c3ccc(Br)cc23)cc1 | 20.7 | 30 | 21.8 | 20.2 | 22 | 39.6 | 22.4 | 28.3 | 23.5 | 27.5 | 22 |
| Cc1nn(-c2cc(Cl)ccc2[N+](=O)[O-])c(C)c1Cl | > 100 | > 100 | > 100 | > 100 | > 100 | > 100 | > 100 | > 100 | > 100 | > 100 | > 100 |
| COCC1OC(N2C(=O)NC(=O)[C@@H]3C=C4CCCCC4=C[C@@H]32)C(OC)C1OC (stereo partly drawn) | > 100 | > 100 | > 100 | > 100 | > 100 | > 100 | > 100 | > 100 | > 100 | > 100 | > 100 |
| Cc1cc2ncc3c(=O)n(NS(=O)(=O)c4ccc(N)cc4)ccc3n2n1 | > 100 | > 100 | > 100 | > 100 | > 100 | > 100 | > 100 | > 100 | > 100 | > 100 | > 100 |
| CCC(C)C(=O)OC1CC2(C)C(c3ccoc3)OC(=O)CC23OC2(C)OC34C(OC(=O)C(C)C)C3(O)C(OC(=O)C5(C)OC5C)C5(C)CC3(O)C(C)(C5CC(=O)OC)C14O2 (stereo not drawn) | > 100 | > 100 | > 100 | > 100 | > 100 | > 100 | > 100 | > 100 | > 100 | > 100 | 66.1 |
| CC1(CNCc2ccccc2)CC(CCc2ccccc2)N(C(=O)c2ccc([N+](=O)[O-])cc2)C1Cc1ccc(O)cc1 (stereo not drawn) | 26.3 | 86 | 25.9 | 33.6 | 36.2 | 46.8 | 26.2 | 34 | 27.1 | 22.3 | 19.2 |
| NC(N)=NS(=O)(=O)c1ccc(NC(=O)c2ccc3nc4ccccc4c(Nc4ccc(S(=O)(=O)N=C(N)N)cc4)c3c2)cc1 | > 100 | > 100 | > 100 | > 100 | > 100 | > 100 | > 100 | > 100 | > 100 | > 100 | > 100 |
| CC1(C)C=C(S(=O)(=O)c2ccccc2)Oc2ccccc2O1 | > 100 | > 100 | > 100 | 75.2 | > 100 | > 100 | 57.6 | > 100 | > 100 | > 100 | > 100 |
| c1ccc2c3c(c(N4CCOCC4)nc2c1)CCCC3 | > 100 | > 100 | 92.9 | > 100 | > 100 | > 100 | > 100 | 81.2 | > 100 | > 100 | > 100 |
| O=c1c2ccccc2nc(Nc2cccc(Cl)c2)n1/N=C/C=C/c1ccccc1 | 97.4 | > 100 | > 100 | > 100 | > 100 | > 100 | > 100 | > 100 | > 100 | > 100 | 74.7 |
| Cc1c2ncccc2cc2oc3ccccc3c(=O)c12 | > 100 | > 100 | > 100 | > 100 | > 100 | > 100 | > 100 | 59.7 | > 100 | > 100 | > 100 |
| CC1CC(=O)Nc2nc3ccccc3n21 (stereo not drawn) | > 100 | > 100 | > 100 | > 100 | > 100 | > 100 | > 100 | > 100 | > 100 | > 100 | > 100 |
| COC(=O)C1=Nc2c(C)nn(-c3ccccc3)c2N=C(c2ccc([N+](=O)[O-])cc2)C1 | > 10 | > 10 | > 10 | > 10 | > 10 | > 10 | > 10 | > 10 | > 10 | > 10 | > 10 |
| O=C(Nc1ccccc1C(=O)NCCCO)/C(=C/c1ccccc1O)NC(=O)c1ccccc1 | > 100 | > 100 | > 89.9 | > 100 | > 100 | 77.6 | > 100 | > 100 | > 100 | > 100 | > 100 |
| O=C(N/N=C/c1ccco1)c1cc(I)cc(I)c1O | > 50 | > 50 | 37.4 | > 50 | – | > 50 | > 50 | 40.9 | > 50 | > 50 | > 50 |
| Clc1ccc(OCc2nnc(CCCCCCCCc3nnc(COc4ccc(Cl)cc4)n3Nc3ccccc3)n2Nc2ccccc2)cc1 | > 100 | > 100 | 58 | > 65.6 | 36.9 | > 100 | 42.6 | > 100 | 37.1 | 34.5 | > 100 |
| COc1cc(CN2CCCCC2)cc2cc(C(=O)O)c(=O)oc12 | > 100 | > 100 | > 100 | > 100 | > 100 | > 100 | > 100 | > 100 | > 100 | > 100 | > 100 |
| Cc1cc2[nH]c3c(C#N)c4c(c(=O)n3c2cc1C)CCCC4 | > 100 | > 100 | > 100 | > 100 | > 100 | > 100 | > 100 | 32.7 | > 100 | > 100 | > 100 |
| CCOC(=O)C(CC#Cc1ccc(C#CCC(NC(C)=O)C(=O)OCC)cc1)NC(C)=O (stereo not drawn) | > 100 | > 100 | > 100 | > 100 | > 100 | > 100 | > 100 | > 100 | > 100 | > 100 | > 100 |
| Brc1ccc2c(-c3csc(-c4c[nH]c5ccc(Br)cc45)n3)c[nH]c2c1 | 19.8 | 28.3 | 4.71 | 19.3 | 6.4 | > 51.3 | 4.16 | 7.54 | 16.6 | 4.95 | > 100 |
